Bridge positions count the residues as written; N and C are the ends. Square brackets hold non-standard residues; d marks the D form. Peptide text beside a SMILES is read from it. * marks the point of attachment. Ileψ(thiazoline)Cys = CC[C@H](C)[C@H](N)C1=N[C@H](C(=O)*)CS1; dOrn = NCCC[C@@H](N)C(=O)O
Columns and labels:
[1] = system: Staphylococcus aureus (DSM346); assay: in-vitro-hole plate assay, growth inhibition of S. aureus in comparison to bacitracin and erythromycin (Example 12); type: cell-based; settings: BHI agar, pre-cut holes; antibiotics at different concentrations, defined numbers of Lactobacillus cells; FIG. 10A/10B
Description: The degree of growth inhibition of the microorganism(s) of the transient pathogenic skin micro flora in comparison to the inhibition of growth of at least one such microorganism after the use of an antibiotic can preferably be observed in vitro, more preferably in an assay in which a microorganism according to aspect (ii) of the invention, as described herein above, is contacted with one or more microorganisms of the transient pathogenic skin micro flora and the growth of the(se) microorganism(s) of the transient pathogenic skin micro flora is determined. Most preferably, the comparison of growth inhibition can be determined in an “in vitro hole plate assay” as described in the Examples and mentioned herein above. […]
This effect has been compared to commercial antibiotic cream preparations of bacitracin and erythromycin. […] The diameter of the inhibition zones has been measured and the area of inhibition has been calculated thereof. […]

resident flora = settings: infants, after treatment with the antibiotic; cited from earlier work
Candida albicans = settings: in vivo; cited from earlier work

Row | Compound | growth inhibition of the indicator strain S. aureus (inhibition zone, area of inhibition) [1] | repression of the resident flora (resident flora) | increase of the pathogenic yeast Candida albicans (Candida albicans)
1 | Lactobacillus delbrückii ssp. delbrückii OB-LB-Sa3 | growth inhibition of S. aureus | – | –
2 | CC[C@H]1OC(=O)[C@H](C)[C@@H](O[C@H]2C[C@@](C)(OC)[C@@H](O)[C@H](C)O2)[C@H](C)[C@@H](O[C@@H]2O[C@H](C)C[C@H](N(C)C)[C@H]2O)[C@](C)(O)C[C@@H](C)C(=O)[C@H](C)[C@@H](O)[C@]1(C)O [erythromycin] | growth inhibition of the indictator strain S. aureus has been observed | – | –
3 | CC[C@H](C)[C@H](N)C1=N[C@H](C(=O)N[C@@H](CC(C)C)C(=O)N[C@H](CCC(=O)O)C(=O)N[C@H](C(=O)N[C@H]2CCCCNC(=O)[C@H](CC(N)=O)NC(=O)[C@@H](CC(=O)O)NC(=O)[C@H](Cc3cnc[nH]3)NC(=O)[C@@H](Cc3ccccc3)NC(=O)[C@H]([C@@H](C)CC)NC(=O)[C@@H](CCCN)NC2=O)[C@@H](C)CC)CS1 [bacitracin] ({Ileψ(thiazoline)Cys}-L[dE]IK[dOrn]I[dF]H[dD]N; lactam 4-C) | growth inhibition of the indictator strain S. aureus has been observed | – | –
4 | CC1(C)S[C@@H]2[C@H](NC(=O)[C@H](N)c3ccc(O)cc3)C(=O)N2[C@H]1C(=O)O [amoxicillin] | – | about 50% | more than a fourteen-fold increase
